From ChEMBL document CHEMBL4382216, “Asymmetric synthesis and biological evaluation of imidazole- and oxazole-containing synthetic lipoxin A4 mimetics (sLXms)” (Eur J Med Chem, 2019)
The source made the active and inactive calls. The rule behind the calls is not given here.

Assays:
[1] = molecular target: T1, N-formyl peptide receptor 2 (Homo sapiens) (UniProt P25090); assay: Agonist activity at ALX/FPR2 in human THP1 cells harboring NF-kB-Luc assessed as inhibition of LPS-induced NFkB signalling activation by measuring NF-kB activation level at 10^-11 M pretreated for 30 mins followed by LPS stimulation for 24 hrs by luciferase reporter gene assay; type: cell-based; design: scale not given: the % may be the effect or the level left
T1 sequence (whole entry): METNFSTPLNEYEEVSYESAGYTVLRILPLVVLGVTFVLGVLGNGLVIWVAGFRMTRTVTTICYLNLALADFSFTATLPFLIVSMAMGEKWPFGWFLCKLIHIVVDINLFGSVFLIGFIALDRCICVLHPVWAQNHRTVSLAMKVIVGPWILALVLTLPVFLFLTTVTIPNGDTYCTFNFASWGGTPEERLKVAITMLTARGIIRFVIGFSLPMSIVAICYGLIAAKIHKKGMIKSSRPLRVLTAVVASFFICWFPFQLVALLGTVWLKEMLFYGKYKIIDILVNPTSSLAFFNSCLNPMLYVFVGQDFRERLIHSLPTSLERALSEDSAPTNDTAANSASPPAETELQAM

[2] = molecular target: T1, N-formyl peptide receptor 2 (Homo sapiens); assay: Agonist activity at ALX/FPR2 in human THP1 cells harboring NF-kB-Luc assessed as inhibition of LPS-induced NFkB signalling activation by measuring NF-kB activation level at 10^-6 M pretreated for 30 mins followed by LPS stimulation for 24 hrs by luciferase reporter gene assay; type: cell-based; design: scale not given: the % may be the effect or the level left
Homo sapiens [3] = organism: Homo sapiens; assay: Activation of Luc-fused NFkB (unknown origin) expressed in non-stimulated human THP1 cells assessed as relative luminescence unit at 10^-12 M after 24 hrs by luciferase reporter gene assay (reference value: 100%); type: cell-based
Homo sapiens [4] = organism: Homo sapiens; assay: Activation of Luc-fused NFkB (unknown origin) expressed in non-stimulated human THP1 cells assessed as relative luminescence unit at 10^-11 M after 24 hrs by luciferase reporter gene assay (reference value: 100%); type: cell-based
Homo sapiens [5] = organism: Homo sapiens; assay: Activation of Luc-fused NFkB (unknown origin) expressed in non-stimulated human THP1 cells assessed as relative luminescence unit at 10^-10 M after 24 hrs by luciferase reporter gene assay (reference value: 100%); type: cell-based
Homo sapiens [6] = organism: Homo sapiens; assay: Activation of Luc-fused NFkB (unknown origin) expressed in non-stimulated human THP1 cells assessed as relative luminescence unit at 10^-9 M after 24 hrs by luciferase reporter gene assay (reference value: 100%); type: cell-based
Homo sapiens [7] = organism: Homo sapiens; assay: Activation of Luc-fused NFkB (unknown origin) expressed in non-stimulated human THP1 cells assessed as relative luminescence unit at 10^-8 M after 24 hrs by luciferase reporter gene assay (reference value: 100%); type: cell-based
Homo sapiens [8] = organism: Homo sapiens; assay: Activation of Luc-fused NFkB (unknown origin) expressed in non-stimulated human THP1 cells assessed as relative luminescence unit at 10^-7 M after 24 hrs by luciferase reporter gene assay (reference value: 100%); type: cell-based
Homo sapiens [9] = organism: Homo sapiens; assay: Activation of Luc-fused NFkB (unknown origin) expressed in non-stimulated human THP1 cells assessed as relative luminescence unit at 10^-6 M after 24 hrs by luciferase reporter gene assay (reference value: 100%); type: cell-based
[10] = molecular target: T1, N-formyl peptide receptor 2 (Homo sapiens); assay: Agonist activity at ALX/FPR2 in human THP1 cells harboring NF-kB-Luc assessed as inhibition of LPS-induced NFkB signalling activation by measuring IL-6 secretion at 10^-11 M pretreated for 30 mins followed by LPS stimulation for 24 hrs by electrochemiluminescence assay; type: cell-based; design: scale not given: the % may be the effect or the level left
[11] = molecular target: T1, N-formyl peptide receptor 2 (Homo sapiens); assay: Agonist activity at ALX/FPR2 in human THP1 cells harboring NF-kB-Luc assessed as inhibition of LPS-induced NFkB signalling activation by measuring IL-6 secretion at 10^-7 M pretreated for 30 mins followed by LPS stimulation for 24 hrs by electrochemiluminescence assay; type: cell-based; design: scale not given: the % may be the effect or the level left
[12] = molecular target: T1, N-formyl peptide receptor 2 (Homo sapiens); assay: Agonist activity at ALX/FPR2 in human THP1 cells harboring NF-kB-Luc assessed as inhibition of LPS-induced NFkB signalling activation by measuring IL-12p70 secretion at 10^-7 M pretreated for 30 mins followed by LPS stimulation for 24 hrs by electrochemiluminescence assay; type: cell-based; design: scale not given: the % may be the effect or the level left
[13] = molecular target: T1, N-formyl peptide receptor 2 (Homo sapiens); assay: Agonist activity at ALX/FPR2 in human THP1 cells harboring NF-kB-Luc assessed as inhibition of LPS-induced NFkB signalling activation by measuring TNFalpha secretion at 10^-7 M pretreated for 30 mins followed by LPS stimulation for 24 hrs by electrochemiluminescence assay; type: cell-based; design: scale not given: the % may be the effect or the level left
[14] = molecular target: T2, N-formyl peptide receptor 2 (Homo sapiens, UniProt P25090); assay: Agonist activity at ALX/FPR2 in human THP1 cells harboring NF-kB-Luc assessed as inhibition of LPS-induced NFkB signalling activation by measuring reduction in TNFalpha secretion pretreated for 30 mins followed by LPS stimulation for 24 hrs by electrochemiluminescence assay; type: cell-based; conditions: read-out: IC50
T2 sequence (P25090 whole entry): T1 sequence (whole entry)

[15] = molecular target: T2, N-formyl peptide receptor 2; assay: Agonist activity at ALX/FPR2 in human THP1 cells harboring NF-kB-Luc assessed as inhibition of LPS-induced NFkB signalling activation by measuring reduction in IL-6 secretion pretreated for 30 mins followed by LPS stimulation for 24 hrs by electrochemiluminescence assay; type: cell-based; conditions: read-out: IC50
THP-1 [16] = assay: Cytotoxicity against human THP1 cells harboring NFkB-Luc assessed as LDH release at 10'12 M after 24 hrs by spectrophotometric method relative to control; type: cell-based; conditions: thp-1, 24 h
THP-1 [17] = assay: Cytotoxicity against human THP1 cells harboring NFkB-Luc assessed as LDH release at 10'11 M after 24 hrs by spectrophotometric method relative to control; type: cell-based; conditions: thp-1, 24 h
THP-1 [18] = assay: Cytotoxicity against human THP1 cells harboring NFkB-Luc assessed as LDH release at 10'10 M after 24 hrs by spectrophotometric method relative to control; type: cell-based; conditions: thp-1, 24 h
THP-1 [19] = assay: Cytotoxicity against human THP1 cells harboring NFkB-Luc assessed as LDH release at 10'9 M after 24 hrs by spectrophotometric method relative to control; type: cell-based; conditions: thp-1, 24 h
THP-1 [20] = assay: Cytotoxicity against human THP1 cells harboring NFkB-Luc assessed as LDH release at 10'8 M after 24 hrs by spectrophotometric method relative to control; type: cell-based; conditions: thp-1, 24 h
THP-1 [21] = assay: Cytotoxicity against human THP1 cells harboring NFkB-Luc assessed as LDH release at 10'6 M after 24 hrs by spectrophotometric method relative to control; type: cell-based; conditions: thp-1, 24 h
Mus musculus [22] = assay: (§1) Anti-inflammatory activity in zymosan-induced C57BL/6J mouse peritonitis model assessed as reduction in total cell count in peritoneal cavity at 43 ng, ip pretreated for 30 mins followed by zymosan treatment and redosing of test compound at 1 hr post zymosan addition and measured at 24 hrs post zymosan addition by flow cytometry relative to basal level (reference value: 14); type: functional
Mus musculus [23] = assay: as §1, with “as” for “as reduction in”, “cytometry” for “cytometry relative to basal level”, “100%)” for “14)”; type: functional
Mus musculus [24] = assay: as §1, with “PMN leukocytes level” for “reduction in total cell count”, “cytometry” for “cytometry relative to basal level”, “100%)” for “14)”; type: functional
[25] = molecular target: T1, N-formyl peptide receptor 2 (Homo sapiens); assay: Agonist activity at ALX/FPR2 (unknown origin) expressed in HEK293 cells co-expressing Galphaq assessed as induction of intracellular calcium accumulation at 0.01 nM to 100 nM by Fluo-4 dye based fluorescence spectrophotometric assay; type: functional, cell-based
HEK293 = assay: Induction of intracellular calcium accumulation in HEK293 cells at 0.01 nM to 100 nM by Fluo-4 dye based fluorescence spectrophotometric assay; type: functional, cell-based; conditions: Homo sapiens

Row | Structure (SMILES) | Activity [1] [%] | Activity [2] [%] | Activity (Homo sapiens [3]) [%] | Activity (Homo sapiens [4]) [%] | Activity (Homo sapiens [5]) [%] | Activity (Homo sapiens [6]) [%] | Activity (Homo sapiens [7]) [%] | Activity (Homo sapiens [8]) [%] | Activity (Homo sapiens [9]) [%] | Activity [10] [%] | Activity [11] [%] | Activity [12] [%] | Activity [13] [%] | IC50 [14] [nM] | IC50 [15] [nM] | fold change (FC) (THP-1 [16]) | fold change (FC) (THP-1 [17]) | fold change (FC) (THP-1 [18]) | fold change (FC) (THP-1 [19]) | fold change (FC) (THP-1 [20]) | also measured
1 | CCCCC[C@@H](O)c1nc(-c2ccccc2)n(-c2ccccc2)c1/C=C/[C@@H](O)[C@@H](O)CCCC(=O)OC | 94.3 | 88.5 | 1.7 | 1.5 | 1.5 | 1.5 | 1.2 | 0.8 | 1.2 | 58.7 | 83.7 | 86.2 | 78.1 | 7.1 | 0.5 | 0.5 | 0.5 | 0.6 | 0.8 | 0.9 | fold change (FC) (THP-1 [21]): 1.1; fold change (FC) (Mus musculus [22]): 6; Emax (Mus musculus [23]): 42.5%; Emax (Mus musculus [24]): 45.5%
2 | CCCCC[C@H](O)/C=C/C=C\C=C\C=C\[C@@H](O)[C@@H](O)CCCC(=O)O [LIPOXIN A4] | 95.5 | 93.3 |  |  |  | 1.5 |  |  |  | 2.6 | 1.7 | 29.6 | 29.5 | 7.7 | 1.7 |  |  |  |  |  | Activity [25]: Active; Activity (HEK293): inactive
3 | CCCCC[C@H](O)c1nc(-c2ccccc2)n(-c2ccccc2)c1/C=C/[C@@H](O)[C@@H](O)CCCC(=O)OC | 83.4 | 90.2 | 1.3 | 1.4 | 1.7 | 1.6 | 1.2 | 0.9 | 1.3 | 69 | 64.9 | 138 | 86.8 | 4.1 | 12 | 0.6 | 0.6 | 0.6 | 0.8 | 1 | fold change (FC) (THP-1 [21]): 1.6; Activity [25]: Active; Activity (HEK293): inactive; fold change (FC) (Mus musculus [22]): 3; Emax (Mus musculus [23]): 19.5%; Emax (Mus musculus [24]): 18.2%
